# Structures can show the parent of a compound that is named as a salt.
# Tested on: hDMFa myofibroblast cells
row,Compound,Compound Myofibroblast Cytotoxicity Activity
1,"Cl.c1ccc2c(-c3cnn4cc(-c5ccc(N6CCNCC6)cc5)cnc34)ccnc2c1 [Cmpd 574, LDN193189 Hydrochloride]",+++++
2,"O=C1Cc2cc(CCN3CCN(c4nsc5ccccc45)CC3)c(Cl)cc2N1 [Cmpd 1029, Ziprasidone HCl]",++
3,"COc1ccc(CCN2CCC(Nc3nc4ccccc4n3Cc3ccc(F)cc3)CC2)cc1 [Cmpd 136, Astemizole]",++++
4,O=C(/C=C/c1ccc(O)c(O)c1)OCCc1ccccc1 [Cmpd 201],++
5,"CC(=O)O[C@@H]1CC[C@@]2(C)[C@@H](CC[C@]3(C)[C@@H]2C(=O)C=C2[C@@H]4[C@@H](C)[C@H](C)CC[C@]4(C)CC[C@]23C)[C@@]1(C)C(=O)O [Cmpd 51, 3-acetyl-11-keto-β-Boswellic Acid]",+++++
6,Cyclo(RGDyK) [Cmpd 303],++
7,Icatibant Acetate [Cmpd 514],++
8,"CC(C)NCC(O)c1ccc(NS(C)(=O)=O)cc1 (stereo not shown) [Cmpd 883, Sotalol hydrochloride]",+++
9,"COCCc1ccc(OCC(O)CNC(C)C)cc1 (stereo not shown) [Cmpd 665, Metoprolol Tartrate]",++
10,"Nc1ccn([C@H]2CC[C@@H](CO)O2)c(=O)n1 [Cmpd 1024, Zalcitabine]",++++
11,"Cl.NCCCC(N)(C(=O)O)C(F)F (racemic) [Cmpd 371, DL-α-Difluoromethylornithine (hydrochloride hydrate)]",++
12,"CC1(C)CC(=O)CC(C)(C)N1 [Cmpd 967, Triacetonamine]",++
13,"N=C(N)c1ccc(OCCCCCOc2ccc(C(=N)N)cc2)cc1.O=S(=O)(O)CCO.O=S(=O)(O)CCO [Cmpd 768, Pentamidine isethionate]",+++
14,"Oc1c(Cl)cc(Cl)c2cccnc12 [Cmpd 251, Chloroxine]",++++
15,"NCc1ccc(S(N)(=O)=O)cc1 [Cmpd 626, Mafenide Acetate]",++++
16,"CC(=O)O.Cc1cc2c(C(C)C)c(O)c(O)c(C=O)c2c(O)c1-c1c(C)cc2c(C(C)C)c(O)c(O)c(C=O)c2c1O [Cmpd 80, Acetate gossypol]",+++++
17,"CCC(=O)c1c(O)cc(O)cc1O [Cmpd 458, Flopropione]",++
18,"Clc1ccc(Cn2c(CN3CCCC3)nc3ccccc32)cc1 [Cmpd 277, Clemizole hydrochloride]",++
19,"C[C@]1(OC(=O)/C=C/c2ccccc2)C[C@@H](O)[C@]2(O)C=CO[C@@H](O[C@@H]3O[C@H](CO)[C@@H](O)[C@H](O)[C@H]3O)[C@@H]21 [Cmpd 499, Harpagoside]",++
20,"CC(C)(C(=O)c1cccnc1)c1cccnc1 [Cmpd 667, Metyrapone]",++

row,Compound,Compound Myofibroblast Cytotoxicity Activity
1,"CC1=C(C(=O)O)N2C(=O)[C@@H](NC(=O)[C@H](N)c3ccc(O)cc3)[C@H]2SC1 [Cmpd 227, Cefadroxil (hydrate)]",++
2,"Cc1c(-c2ccc(O)cc2)n(Cc2ccc(OCCN3CCCCCC3)cc2)c2ccc(O)cc12 [Cmpd 159, Bazedoxifene acetate]",++++
3,"O=C(O)[C@@H]1CCCN1 [Cmpd 612, L-Proline]",++++
4,"CCCC(CCC)C(=O)O [Cmpd 993, Valproic acid]",+++
5,"CC(=O)O.CC(=O)O.NC(=N\CCCCCC/N=C(N)/N=C(\N)Nc1ccc(Cl)cc1)/N=C(\N)Nc1ccc(Cl)cc1 [Cmpd 247, Chlorhexidine diacetate]",+++++
6,"C[C@H]1c2cccc(O)c2C(=O)C2=C(O)[C@]3(O)C(=O)C(C(N)=O)=C(O)[C@@H](N(C)C)[C@@H]3[C@@H](O)[C@@H]21 [Cmpd 388, Doxycycline HCl]",++
7,"CCCCC/C=C\C/C=C\CCCCCCCC(=O)O [Cmpd 591, Linoleic Acid]",+++
8,"Cl.N=C(N)c1ccccc1 [Cmpd 163, Benzamidine HCl]",+++
9,"CC(COc1ccccc1)N(CCCl)Cc1ccccc1.Cl (stereo not shown) [Cmpd 776, Phenoxybenzamine HCl]",++
10,"C/C=C/c1cc(OC)c(OC)cc1OC [Cmpd 3, α-Asarone]",++
11,"CCCCC1OC(=O)c2ccccc21 (stereo not shown) [Cmpd 54, 3-n-Butylphathlide]",++
12,"c1cc(-c2cnn3cc(-c4ccc(N5CCNCC5)cc4)cnc23)c2cccnc2c1 [Cmpd 575, LDN-212854]",++++
13,"CC(C)/N=c1\cc2n(-c3ccc(Cl)cc3)c3ccccc3nc-2cc1Nc1ccc(Cl)cc1 [Cmpd 283, Clofazimine]",++
14,"CC(CN1c2ccccc2Sc2ccccc21)N(C)C (stereo not shown) [Cmpd 801, Promethazine HCl]",++
15,"Cc1[nH]cnc1CN1CCc2c(c3ccccc3n2C)C1=O.Cl [Cmpd 101, Alosetron Hydrochloride]",++++
16,"O=C(O)c1ccccc1C(=O)O [Cmpd 781, Phthalic acid]",++
17,"CN(C)C(=O)C(CCN1CCC(O)(c2ccc(Cl)cc2)CC1)(c1ccccc1)c1ccccc1 [Cmpd 606, Loperamide HCl]",+++
18,"Cc1ccc(-n2nc(C(C)(C)C)cc2NC(=O)Nc2ccc(OCCN3CCOCC3)c3ccccc23)cc1 [Cmpd 183, BIRB 796 (Doramapimod)]",++
19,"C#C[C@]1(O)CC[C@H]2[C@@H]3CCC4=CCCC[C@@H]4[C@H]3C(=C)C[C@@]21CC [Cmpd 344, Desogestrel]",+++
20,"CC(=O)O[C@H]1C[C@@]2(C)[C@@H](C[C@@H](O)[C@H]3[C@@]4(C)CC[C@@H](O)[C@@H](C)[C@@H]4CC[C@@]32C)/C1=C(\CCC=C(C)C)C(=O)O [Cmpd 477, Fusidic Acid (sodium salt)]",+++

row,Compound,Compound Myofibroblast Cytotoxicity Activity
1,"COc1ccc2cc3[n+](cc2c1OC)CCc1cc2c(cc1-3)OCO2 [Cmpd 173, Berberine Sulfate]",++
2,"C[C@]12CC[C@H]3[C@@H](CC[C@@]45O[C@@H]4C(O)=C(C#N)C[C@]35C)[C@@H]1CC[C@@H]2O [Cmpd 973, Trilostane]",++
3,"CC(C)(C)C(=O)Oc1ccc(S(=O)(=O)Nc2ccccc2C(=O)NCC(=O)O)cc1 [Cmpd 866, Sivelestat (ONO-5046)]",++
4,"C[C@@H](O)[C@H](N)C(=O)O [Cmpd 614, L-Threonine]",+++++
5,"CC(C)(CO)[C@@H](O)C(=O)NCCC(=O)[O-].[Na+] [Cmpd 391, D-Pantothenate sodium]",++
6,"C/C1=C2/[N-][C@H]([C@H](CC(N)=O)[C@@]2(C)CCC(=O)NC[C@@H](C)OP(=O)([O-])O[C@H]2[C@@H](O)[C@@H](n3cnc4cc(C)c(C)cc43)O[C@@H]2CO)[C@]2(C)N=C(/C(C)=C3N=C(/C=C4N=C1[C@@H](CCC(N)=O)C\4(C)C)[C@@H](CCC(N)=O)[C@]\3(C)CC(N)=O)[C@@H](CCC(N)=O)[C@]2(C)CC(N)=O.[CH3-].[Co+3] [Cmpd 662, Methylcobalamin]",++
7,"CN(C)CCOc1ccc(/C(=C(/CCCl)c2ccccc2)c2ccccc2)cc1 [Cmpd 959, Toremifene Citrate]",+++
8,"Cc1cc(N)c2ccccc2[n+]1CCCCCCCCCC[n+]1c(C)cc(N)c2ccccc21 [Cmpd 340, Dequalinium Chloride]",++
9,"Cc1nc(Nc2ncc(C(=O)Nc3c(C)cccc3Cl)s2)cc(N2CCN(CCO)CC2)n1 [Cmpd 326, Dasatinib (BMS-354825)]",+++
10,"CCOC(=O)C1=C(COCCN)NC(C)=C(C(=O)OC)[C@@H]1c1ccccc1Cl [Cmpd 580, Levamlodipine]",+++++
11,"O=C(O[C@@H]1C[C@@H]2C[C@H]3C[C@H](C1)N2CC3=O)c1c[nH]c2ccccc12 [Cmpd 376, Dolasetron]",++
12,"CC[C@H](C)[C@H](N)C(=O)O [Cmpd 594, L-Isoleucine]",+
13,"C[C@H]1O[C@@H](n2cc(F)c(=O)[nH]c2=O)[C@H](O)[C@@H]1O [Cmpd 387, Doxifluridine]",++++
14,"C=C1CC[C@H]2O[C@]2(C)CC[C@@H]2[C@@H]1CC2(C)C [Cmpd 222, Caryophyllene Oxide]",++
15,"COC(=O)[C@]12CCC(C)(C)C[C@H]1[C@H]1C(=O)C=C3[C@@]4(C)C=C(C#N)C(=O)C(C)(C)[C@@H]4CC[C@@]3(C)[C@]1(C)CC2 [Cmpd 156, Bardoxolone methyl]",+++++
16,"CC(C)(C)NCC(O)c1cc(Cl)c(N)c(Cl)c1 (stereo not shown) [Cmpd 278, Clenbuterol (hydrochloride)]",++
17,"C[C@H]1O[C@H](OC2[C@@H](O)[C@@H](O)C(O)[C@H](O)[C@H]2O)[C@@H](N)C[C@@H]1N=C(N)C(=O)O.Cl (stereo partly shown) [Cmpd 548, Kasugamycin (hydrochloride)]",+++
18,"CN(C/C=C/C#CC(C)(C)C)Cc1cccc2ccccc12 [Cmpd 926, Terbinafine]",++
